Source: patent US20220380338A1, “CYCLOALKYL 3-OXOPIPERAZINE CARBOXAMIDES AND CYCLOHETEROALKYL 3-OXOPIPERAZINE CARBOXAMIDES AS NAV1.8 INHIBITORS” (Merck Sharp & Dohme LLC, priority 2021, published 2022)

Molecular target: T1, human NaV1.8 (Homo sapiens, UniProt Q9Y5Y9)
T1 construct: expressed in transfected cells
Assay: Nav1.8 Qube® Assay (automated 384-well patch-clamp, inhibition of sodium current)
Type: cell-based
Conditions: human NaV1.8 channels stably expressed in HEK 293 cells, room temperature
In short: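 Whole-cell voltage clamp at room temperature in HEK293 cells stably expressing NaV1.8; from −90 mV hold, 10 s 1 Hz train of 20 ms pulses to 10 mV with 980 ms repolarization to −67 mV. Peak currents of 1st and 10th pulses give resting and inactivated-state IC50s, Hill fit.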

T1 sequence (Q9Y5Y9 whole entry): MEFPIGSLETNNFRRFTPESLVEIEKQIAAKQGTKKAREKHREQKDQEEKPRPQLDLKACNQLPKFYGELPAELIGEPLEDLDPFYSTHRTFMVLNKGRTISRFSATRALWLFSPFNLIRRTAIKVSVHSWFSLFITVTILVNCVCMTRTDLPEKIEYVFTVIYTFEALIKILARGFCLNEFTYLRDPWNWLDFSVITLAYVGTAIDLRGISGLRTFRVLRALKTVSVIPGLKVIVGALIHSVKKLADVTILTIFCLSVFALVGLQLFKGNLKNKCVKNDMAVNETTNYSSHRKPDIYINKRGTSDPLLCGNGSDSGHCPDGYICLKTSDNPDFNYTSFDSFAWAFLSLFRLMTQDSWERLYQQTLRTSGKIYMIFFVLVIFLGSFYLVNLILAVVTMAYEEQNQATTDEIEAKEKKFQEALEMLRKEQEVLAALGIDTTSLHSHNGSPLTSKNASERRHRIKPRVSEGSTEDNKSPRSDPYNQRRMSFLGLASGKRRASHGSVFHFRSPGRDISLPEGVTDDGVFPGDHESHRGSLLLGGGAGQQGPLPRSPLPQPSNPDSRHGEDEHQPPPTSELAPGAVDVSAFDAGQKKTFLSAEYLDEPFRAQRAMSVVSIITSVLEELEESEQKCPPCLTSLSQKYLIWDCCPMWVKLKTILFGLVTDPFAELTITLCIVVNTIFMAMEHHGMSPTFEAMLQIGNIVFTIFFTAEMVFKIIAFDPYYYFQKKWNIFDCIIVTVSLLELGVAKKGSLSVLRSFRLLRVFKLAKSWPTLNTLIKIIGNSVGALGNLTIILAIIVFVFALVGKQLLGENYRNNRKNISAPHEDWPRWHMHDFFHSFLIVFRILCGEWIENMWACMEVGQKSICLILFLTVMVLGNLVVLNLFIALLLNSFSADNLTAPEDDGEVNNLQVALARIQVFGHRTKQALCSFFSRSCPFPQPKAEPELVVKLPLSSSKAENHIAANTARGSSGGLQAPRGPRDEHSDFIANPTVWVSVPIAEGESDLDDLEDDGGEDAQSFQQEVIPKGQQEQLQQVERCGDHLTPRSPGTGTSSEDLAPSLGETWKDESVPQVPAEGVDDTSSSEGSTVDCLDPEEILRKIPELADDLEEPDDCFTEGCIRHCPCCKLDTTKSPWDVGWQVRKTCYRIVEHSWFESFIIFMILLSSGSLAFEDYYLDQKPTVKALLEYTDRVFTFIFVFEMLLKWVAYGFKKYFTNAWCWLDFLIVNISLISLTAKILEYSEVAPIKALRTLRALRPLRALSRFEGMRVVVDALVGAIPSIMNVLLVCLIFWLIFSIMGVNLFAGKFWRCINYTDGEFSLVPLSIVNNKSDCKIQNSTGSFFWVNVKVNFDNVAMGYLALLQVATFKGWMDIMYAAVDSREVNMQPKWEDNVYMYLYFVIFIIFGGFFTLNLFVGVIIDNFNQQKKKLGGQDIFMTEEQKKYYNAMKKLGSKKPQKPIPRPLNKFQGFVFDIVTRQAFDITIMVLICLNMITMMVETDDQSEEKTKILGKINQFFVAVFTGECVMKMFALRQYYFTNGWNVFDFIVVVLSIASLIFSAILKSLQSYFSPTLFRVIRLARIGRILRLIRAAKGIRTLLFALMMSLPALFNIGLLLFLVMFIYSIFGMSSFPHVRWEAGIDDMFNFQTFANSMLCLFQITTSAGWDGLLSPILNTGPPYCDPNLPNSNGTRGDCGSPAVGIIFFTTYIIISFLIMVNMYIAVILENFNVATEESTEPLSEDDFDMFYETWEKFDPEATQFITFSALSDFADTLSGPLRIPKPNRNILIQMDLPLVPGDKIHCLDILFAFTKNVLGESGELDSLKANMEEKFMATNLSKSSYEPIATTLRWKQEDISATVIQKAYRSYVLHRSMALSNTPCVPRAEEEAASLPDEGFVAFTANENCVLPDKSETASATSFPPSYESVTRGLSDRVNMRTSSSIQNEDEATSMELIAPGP

| Compound | IC50 [nM] |
| --- | --- |
| C[C@@H]1C(=O)NCCN1C(=O)NC(c1cccc(Cl)c1F)[C@H]1C[C@H](C(F)(F)F)C1 (single isomer, unassigned) [Example 53A, (2R)-N-((R or S)-(3-chloro-2-fluorophenyl)-(trans-3-(trifluoro-methyl)cyclobutyl)meth-yl)-2-methyl-3-oxo-piperazine-1-carboxamide] | 538 |
| C[C@@H]1C(=O)NCCN1C(=O)NC(c1ccc(F)c(Cl)c1F)C1CC(C2CC2)C1 (single isomer, unassigned) [Example 21D, (2R)-N-((S or R)-(3-chloro-2,4-difluoro-phenyl)(cis or trans-3-cyclopropyl-cyclobutyl)-methyl)-2-methyl-3-oxopiperazine-1-carboxamide] | 128 |
| C[C@@H]1C(=O)NCCN1C(=O)NC(c1ccc(F)c(Cl)c1F)C1COc2ccccc2C1 (single isomer, unassigned) [Example 62D, (R)—N—((S or R)-(3-chloro-2,4-difluorophenyl)((S or R)-chroman-3-yl)methyl)-2-methyl-3-oxopiperazine-1-carboxamide] | 0.8 |
| C[C@@H]1C(=O)NCCN1C(=O)NC(c1ccc(F)c(Cl)c1F)[C@H]1C[C@@H]1C(F)(F)F (single isomer, unassigned) [Example 57D] | 12 |
| C[C@@H]1C(=O)NCCN1C(=O)NC(c1ccc(F)c(Cl)c1F)C1CC(C)(C)C1 (single isomer, unassigned) [Example 31B, (2R)-N-((S or R)-(3-chloro-2,4-difluoro-phenyl)(3,3-dimethyl-cyclobutyl)methyl)-2-methyl-3-oxopiperazine-1-carboxamide] | 71 |
| C[C@@H]1C(=O)NCCN1C(=O)NC(c1ccc(F)c(Cl)c1)C1CCN(CC(F)(F)F)CC1 (single isomer, unassigned) [Example 15B] | 553 |
| C[C@@H]1C(=O)NCCN1C(=O)NC(c1ccc(F)c(Cl)c1F)C1CC2(C1)CC2(F)F (single isomer, unassigned) [Example 22C, (2R)-N-((S or R)-(3-chloro-2,4-difluoro-phenyl)(trans or cis-1,1-difluoro-spiro[2.3]-hexan-5-yl)methyl)-2-methyl-3-oxopiperazine-1-carboxamide] | 84.5 |
| O=C1CN(C(=O)N[C@H](c2ccc(Cl)cc2)C2CCC(C(F)(F)F)CC2)CCN1 (single isomer, unassigned) [Example 4A, N-((R or S)-(4-chlorophenyl)(trans-4-(trifluoromethyl)-cyclohexyl)methyl)-3-oxopiperazine-1-carboxamide] | 89.3 |
| O=C1NCCN(C(=O)N[C@H](c2ccc(F)c(Cl)c2F)[C@H]2C[C@H](C(F)(F)F)C2)[C@@H]1CO [Example 64, (R)—N—((S)-(3-chloro-2,4-difluorophenyl)((trans)-3-(trifluoromethyl)cyclobutyl)methyl)-2-(hydroxymethyl)-3-oxopiperazine-1-carboxamide] | 3.2 |
| C[C@@H]1C(=O)NCCN1C(=O)NC(c1ccc(F)c(Cl)c1)C1CC2CCC(C1)C2(F)F (single isomer, unassigned) [Example 3A, (2R)-N-((R or S)-(3-chloro-4-fluoro-phenyl)(8,8-difluoro-bicyclo[3.2.1]octan-3-yl)methyl)-2-methyl-3-oxo-piperazine-1-carboxamide] | 14.8 |
| COC1CC(C(NC(=O)N2CCNC(=O)[C@H]2C)c2ccc(F)c(Cl)c2F)C1 (single isomer, unassigned) [Example 40A, (2R)-N-((R or S)-(3-chloro-2,4-difluoro-phenyl)(trans-3-methoxy-cyclobutyl)methyl)-2-methyl-3-oxopiperazine-1-carboxamide] | 11700 |
| C[C@@H]1C(=O)NCCN1C(=O)NC(c1ccc(F)c(Cl)c1F)[C@H]1C[C@H](C(F)F)C1 (single isomer, unassigned) [Example 29A] | 8.91 |
| C[C@@H]1C(=O)NCCN1C(=O)NC(c1ccc(F)c(Cl)c1F)[C@H]1CC[C@H](C(F)(F)F)CC1 (single isomer, unassigned) [Example 9A, (2R)-N-((R or S)-(3-chloro-2,4-difluoro-phenyl)(trans-4-(trifluoromethyl)cyclo-hexyl)methyl)-2-methyl-3-oxo-piperazine-1-carboxamide] | 46.8 |
| Cc1cc(C(NC(=O)N2CCNC(=O)[C@H]2C)C2CCC(C(F)(F)F)CC2)ccc1F (single isomer, unassigned) [Example 36A] | 55.7 |
| C[C@@H]1C(=O)NCCN1C(=O)NC(c1ccc(F)c(Cl)c1F)C1CC(OC(F)F)C1 (single isomer, unassigned) [Example 39C, (2R)-N-((S or R)-(3-chloro-2,4-difluoro-phenyl)(cis-3-(difluoro-methoxy)cyclobutyl)-methyl)-2-methyl-3-oxopiperazine-1-carboxamide] | 48.5 |
| C[C@@H]1C(=O)NCCN1C(=O)NC(c1ccc(F)c(Cl)c1F)C1CCC(C(F)(F)F)C1 (single isomer, unassigned) [Example 58A, (2R)—N—((R or S)-(3-chloro-2,4-difluorophenyl)(cis-3-(trifluoromethyl)cyclopentyl)methyl)-2-methyl-3-oxopiperazine-1-carboxamide] | 9.23 |
| C[C@@H]1C(=O)NCCN1C(=O)N[C@H](c1ccc(F)c(Cl)c1)C1CCC(C(F)(F)F)CC1 (single isomer, unassigned) [Example 5A, (2R)-N-((R or S)-(3-chloro-4-fluoro-phenyl)(trans-4-(trifluoromethyl)cyclo-hexyl)methyl)-2-methyl-3-oxo-piperazine-1-carboxamide] | 40.9 |
| C[C@@H]1C(=O)NCCN1C(=O)NC(c1ccc(OC(F)(F)F)c(Cl)c1)C1CC(C(F)(F)F)C1 (single isomer, unassigned) [Example 54A, (2R)-N-((R or S)-(3-chloro-4-(trifluoro-methoxy)phenyl)(3-(trifluoromethyl)cyclo-butyl)methyl)-2-methyl-3-oxopiperazine-1-carboxamide] | 1.7 |
| C[C@@H]1C(=O)NCCN1C(=O)NC(c1cccc(Cl)c1F)[C@H]1C[C@H](C(F)(F)F)C1 (single isomer, unassigned) [Example 53B, (2R)-N-((S or R)-(3-chloro-2-fluorophenyl)-(trans-3-(trifluoro-methyl)cyclobutyl)meth-yl)-2-methyl-3-oxo-piperazine-1-carboxamide] | 9.06 |
| C[C@@H]1C(=O)NCCN1C(=O)NC(c1ccc(F)c(Cl)c1)C1CC(C(F)(F)F)C1 (single isomer, unassigned) [Example 43B, (2R)-N-((R or S)-(3-chloro-4-fluorophenyl)-(cis-3-(trifluoromethyl)-cyclobutyl)methyl)-2-methyl-3-oxopiperazine-1-carboxamide] | 26.4 |
| C[C@@H]1C(=O)NCCN1C(=O)NC(c1ccc(F)c(Cl)c1F)C1CC(F)(F)C1 (single isomer, unassigned) [Example 24A, (2R)-N-((R or S)-(3-chloro-2,4-difluoro-phenyl)(3,3-difluoro-cyclobutyl)methyl)-2-methyl-3-oxopiperazine-1-carboxamide] | 2630 |
| O=C1CN(C(=O)NC(c2ccc(F)c(Cl)c2)C23CCC(C(F)(F)F)(CC2)CC3)CCN1 (single isomer, unassigned) [Example 12B, N-((S or R)-(3-chloro-4-fluoro-phenyl)(4-(trifluoro-methyl)bicyclo[2.2.2]octan-1-yl)methyl)-3-oxopiperazine-1-carboxamide] | 11.5 |
| C[C@@H]1C(=O)NCCN1C(=O)NC(c1cc(F)c(F)c(F)c1)[C@H]1CC[C@H](C(F)(F)F)CC1 (single isomer, unassigned) [Example 6B, (R)-2-methyl-3-oxo-N-((S or R)-(trans-4-(trifluoromethyl)cyclo-hexyl)(3,4,5-tri-fluorophenyl)methyl) piperazine-1-carboxamide] | 35.4 |
| C[C@@H]1C(=O)NCCN1C(=O)NC(c1ccc(F)c(Cl)c1)C1CCC2(CC1)CC2(F)F (single isomer, unassigned) [Example 19D] | 10 |
| C[C@@H]1C(=O)NCCN1C(=O)NC(c1ccc(F)c(Cl)c1F)C1COc2ccccc2C1 (single isomer, unassigned) [Example 62A, (R)—N—((R or S)-(3-chloro-2,4-difluorophenyl)((R or S)-chroman-3-yl)methyl)-2-methyl-3-oxopiperazine-1-carboxamide] | 3.2 |
| C[C@@H]1C(=O)NCCN1C(=O)NC(c1ccc(F)c(Cl)c1F)C1CC12CC2 (single isomer, unassigned) [Example 41A, (2R)-N-((R or S)-(3-chloro-2,4-difluoro-phenyl)((R or S)-spiro[2.2]pentan-1-yl)methyl)-2-methyl-3-oxopiperazine-1-carboxamide] | 31.6 |
| C[C@@H]1C(=O)NCCN1C(=O)NC(c1ccc(Cl)c(C(F)(F)F)n1)C1CCC(F)(F)CC1 (single isomer, unassigned) [Example 46B, (2R)-N-((S or R)-(5-chloro-6-(trifluoro-methyl)pyridin-2-yl)(4,4-difluoro-cyclohexyl)methyl)-2-methyl-3-oxo-piperazine-1-carboxamide] | 23.7 |
| C[C@@H]1C(=O)NCCN1C(=O)NC(c1ccc(F)c(Cl)c1F)C12CC(C(F)(F)F)(C1)C2 (single isomer, unassigned) [Example 30A] | 281 |
| O=C1CN(C(=O)NC(c2ccc(F)c(Cl)c2)C2CCN(CC(F)(F)F)CC2)CCN1 (single isomer, unassigned) [Example 17B, N-((S or R)-(3-chloro-4-fluorophenyl)(1-(2,2,2-trifluoroethyl)piperidin-4-yl)methyl)-3-oxopiperazine-1-carboxamide] | 136 |
| C[C@@H]1C(=O)NCCN1C(=O)NC(c1ccc(F)c(Cl)c1F)C1CCC(F)(F)CC1 (single isomer, unassigned) [Example 13A, (2R)-N-((R or S)-(3-chloro-2,4-difluoro-phenyl)(4,4-difluoro-cyclohexyl)methyl)-2-methyl-3-oxo-piperazine-1-carboxamide] | 13.4 |
